# Source: patent publication EP1166782A2, “Anti-retroviral pharmaceutical compositions” (Yang, Chi-Chiang, priority 2000, dated 2002)
# Like-named read-outs stand apart in the source and are kept apart here.
# Columns and labels:
# [1] = system: macrophage-tropic (NL-43); experiment: P24 quantification (P24 EIA) in infected PBMCs, NL-43; assay type: cell-based, HIV-1; settings: PBMC; for concentrations of the viral P24 antigen, NL43(+): (+) original concentration of compound maintained after washing; for concentrations of the viral P24 antigen, NL43(-): (-) compound removed after washing
# Procedure: (§1) PBMCs were treated with various concentrations of CAPE, MC and PEDMC provided in Example 2 and simultaneously infected with […] and macrophage and T cells dual tropic (89.6) HIV-1 isolates. The next day, the added compounds were removed by washing methods or maintained at the same concentration. Samples were divided into two groups and the upernatants of the culture medium were collected at the 3 and 7 days after infection, respectively. The use of P24 EIA Reagent Kit of Abbott Laboratory compares the concentrations of viral P24 antigen with or without the compounds tested.
# T cells-tropic (JRCSF) = experiment: P24 quantification (P24 EIA) in infected PBMCs, JRCSF; assay type: cell-based, HIV-1; settings: PBMC; for concentrations of the viral P24 antigen, JRCSF(+): (+) original concentration of compound maintained after washing; for concentrations of the viral P24 antigen, JRCSF(-): (-) compound removed after washing
# Procedure: as §1
# [2] = system: macrophage and T cells dual tropic (89.6); experiment: P24 quantification (P24 EIA) in infected PBMCs, 89.6; assay type: cell-based, HIV-1; settings: PBMC; for concentrations of the viral P24 antigen, 89.6(+): (+) original concentration of compound maintained after washing; for concentrations of the viral P24 antigen, 89.6(-): (-) compound removed after washing
# Procedure: as §1
# [3] = system: various HIV isolates (NL-43, JRCSF or 89.6); experiment: P24 quantification, summary statements over all isolates; assay type: cell-based, HIV-1
# Procedure: as §1
# [4] = system: Peripheral Blood Mononuclear Cells (PBMC); settings: for The numbers of dead cells in 400 cells' count / % viability: 48 hours; for The numbers of dead cells in 400 cells' count: control 9 dead cells; for % viability: viable cells versus control (391);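 for all read-outs here: trypan blue dye exclusion, cells stained and counted from quadruplicate dishes, DMSO vehicle kept under 0.5%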
# Procedure: Viability of the cells was assayed by the trypan blue dye exclusion method. […] The concentration of DMSO was adjusted to be less than 0.5%. Cells from quadruplicated dishes were washed once with Hank's Balanced Salt Solution (HBSS). According to the process, the floating dead cells will be separated from the live monolayer cells. Then the cells were stained with trypan blue and counted. The total number of viable cells in the control group was considered as 100% viability and the agent-treated cells were compared with the control group for the determination of % viability. The % viability of agent-treated cells was calculated from the total number of viable cells in the control group and in the agent-treated group.
compound,measurement,setting,value
"COC(=O)/C=C/c1ccc(O)c(O)c1 [MC, methyl caffeate]","concentrations of the viral P24 antigen, NL43(+)",[1]; 0.1 µM,1000 unit
same,"concentrations of the viral P24 antigen, NL43(-)",[1]; 0.1 µM,1000 unit
same,"concentrations of the viral P24 antigen, NL43(+)",[1]; 0.5 µM,1000 unit
same,"concentrations of the viral P24 antigen, NL43(-)",[1]; 0.5 µM,1000 unit
same,"concentrations of the viral P24 antigen, NL43(+)",[1]; 1 µM,1000 unit
same,"concentrations of the viral P24 antigen, NL43(-)",[1]; 1 µM,1000 unit
same,"concentrations of the viral P24 antigen, NL43(+)",[1]; 5 µM,1000 unit
same,"concentrations of the viral P24 antigen, NL43(-)",[1]; 5 µM,1000 unit
same,"concentrations of the viral P24 antigen, NL43(+)",[1]; 10 µM,1000 unit
same,"concentrations of the viral P24 antigen, NL43(-)",[1]; 10 µM,1000 unit
same,"concentrations of the viral P24 antigen, NL43(+)",[1]; 25 µM,220.63 unit
same,"concentrations of the viral P24 antigen, NL43(-)",[1]; 25 µM,1000 unit
same,"concentrations of the viral P24 antigen, NL43(+)",[1]; 50 µM,273.07 unit
same,"concentrations of the viral P24 antigen, NL43(-)",[1]; 50 µM,922.63 unit
same,"concentrations of the viral P24 antigen, NL43(+)",[1]; 100 µM,0 unit
same,"concentrations of the viral P24 antigen, NL43(-)",[1]; 100 µM,687.24 unit
same,"concentrations of the viral P24 antigen, NL43(+)",[1]; 200 µM,0 unit
same,"concentrations of the viral P24 antigen, NL43(-)",[1]; 200 µM,518.45 unit
same,"concentrations of the viral P24 antigen, NL43(+)",[1]; 400 µM,0 unit
same,"concentrations of the viral P24 antigen, NL43(-)",[1]; 400 µM,2.53 unit
same,"concentrations of the viral P24 antigen, JRCSF(+)",T cells-tropic (JRCSF); 0.1 µM,1000 unit
same,"concentrations of the viral P24 antigen, JRCSF(-)",T cells-tropic (JRCSF); 0.1 µM,1000 unit
same,"concentrations of the viral P24 antigen, JRCSF(+)",T cells-tropic (JRCSF); 0.5 µM,1000 unit
same,"concentrations of the viral P24 antigen, JRCSF(-)",T cells-tropic (JRCSF); 0.5 µM,1000 unit
same,"concentrations of the viral P24 antigen, JRCSF(+)",T cells-tropic (JRCSF); 1 µM,1000 unit
same,"concentrations of the viral P24 antigen, JRCSF(-)",T cells-tropic (JRCSF); 1 µM,1000 unit
same,"concentrations of the viral P24 antigen, JRCSF(+)",T cells-tropic (JRCSF); 5 µM,58.13 unit
same,"concentrations of the viral P24 antigen, JRCSF(-)",T cells-tropic (JRCSF); 5 µM,1000 unit
same,"concentrations of the viral P24 antigen, JRCSF(+)",T cells-tropic (JRCSF); 10 µM,2.53 unit
same,"concentrations of the viral P24 antigen, JRCSF(-)",T cells-tropic (JRCSF); 10 µM,828.46 unit
same,"concentrations of the viral P24 antigen, JRCSF(+)",T cells-tropic (JRCSF); 25 µM,2.33 unit
same,"concentrations of the viral P24 antigen, JRCSF(-)",T cells-tropic (JRCSF); 25 µM,786.67 unit
same,"concentrations of the viral P24 antigen, JRCSF(+)",T cells-tropic (JRCSF); 50 µM,0 unit
same,"concentrations of the viral P24 antigen, JRCSF(-)",T cells-tropic (JRCSF); 50 µM,42.64 unit
same,"concentrations of the viral P24 antigen, JRCSF(+)",T cells-tropic (JRCSF); 100 µM,0 unit
same,"concentrations of the viral P24 antigen, JRCSF(-)",T cells-tropic (JRCSF); 100 µM,0 unit
same,"concentrations of the viral P24 antigen, JRCSF(+)",T cells-tropic (JRCSF); 200 µM,0 unit
same,"concentrations of the viral P24 antigen, JRCSF(-)",T cells-tropic (JRCSF); 200 µM,0 unit
same,"concentrations of the viral P24 antigen, JRCSF(+)",T cells-tropic (JRCSF); 400 µM,0 unit
same,"concentrations of the viral P24 antigen, JRCSF(-)",T cells-tropic (JRCSF); 400 µM,0 unit
same,"concentrations of the viral P24 antigen, 89.6(+)",[2]; 0.1 µM,1000 unit
same,"concentrations of the viral P24 antigen, 89.6(-)",[2]; 0.1 µM,1000 unit
same,"concentrations of the viral P24 antigen, 89.6(+)",[2]; 0.5 µM,954.88 unit
same,"concentrations of the viral P24 antigen, 89.6(-)",[2]; 0.5 µM,1000 unit
same,"concentrations of the viral P24 antigen, 89.6(+)",[2]; 1 µM,149.67 unit
same,"concentrations of the viral P24 antigen, 89.6(-)",[2]; 1 µM,966.67 unit
same,"concentrations of the viral P24 antigen, 89.6(+)",[2]; 5 µM,66.78 unit
same,"concentrations of the viral P24 antigen, 89.6(-)",[2]; 5 µM,1000 unit
same,"concentrations of the viral P24 antigen, 89.6(+)",[2]; 10 µM,14.36 unit
same,"concentrations of the viral P24 antigen, 89.6(-)",[2]; 10 µM,624.39 unit
same,"concentrations of the viral P24 antigen, 89.6(+)",[2]; 25 µM,5.2 unit
same,"concentrations of the viral P24 antigen, 89.6(-)",[2]; 25 µM,504.42 unit
same,"concentrations of the viral P24 antigen, 89.6(+)",[2]; 50 µM,18.4 unit
same,"concentrations of the viral P24 antigen, 89.6(-)",[2]; 50 µM,286.46 unit
same,"concentrations of the viral P24 antigen, 89.6(+)",[2]; 100 µM,8.91 unit
same,"concentrations of the viral P24 antigen, 89.6(-)",[2]; 100 µM,278.43 unit
same,"concentrations of the viral P24 antigen, 89.6(+)",[2]; 200 µM,0 unit
same,"concentrations of the viral P24 antigen, 89.6(-)",[2]; 200 µM,124.97 unit
same,"concentrations of the viral P24 antigen, 89.6(+)",[2]; 400 µM,0 unit
same,"concentrations of the viral P24 antigen, 89.6(-)",[2]; 400 µM,0 unit
same,viral replications (result in words),"[3]; Figures 3-5, PBMC infected with NL-43, JRCSF or 89.6",significantly inhibited viral replications
same,inhibit viral replication,"[3]; at the concentration of 100 µM or less, various HIV isolates",100%
same,The numbers of dead cells in 400 cells' count,[4]; 0.1 µM,9
same,% viability,[4]; 0.1 µM,391/391 (100%)
same,The numbers of dead cells in 400 cells' count,[4]; 0.5 µM,7
same,% viability,[4]; 0.5 µM,393/391 (100.5%)
same,The numbers of dead cells in 400 cells' count,[4]; 1 µM,12
same,% viability,[4]; 1 µM,388/391 (99.2%)
same,The numbers of dead cells in 400 cells' count,[4]; 5 µM,9
same,% viability,[4]; 5 µM,391/391 (100%)
same,The numbers of dead cells in 400 cells' count,[4]; 10 µM,7
same,% viability,[4]; 10 µM,393/391 (100.5%)
same,The numbers of dead cells in 400 cells' count,[4]; 25 µM,11
same,% viability,[4]; 25 µM,389/391 (99.5%)
same,The numbers of dead cells in 400 cells' count,[4]; 50 µM,11
same,% viability,[4]; 50 µM,389/391 (99.5%)
same,The numbers of dead cells in 400 cells' count,[4]; 100 µM,7
same,% viability,[4]; 100 µM,393/391 (100.5%)
same,The numbers of dead cells in 400 cells' count,[4]; 200 µM,8
same,% viability,[4]; 200 µM,392/391 (100.3%)
same,The numbers of dead cells in 400 cells' count,[4]; 400 µM,7
same,% viability,[4]; 400 µM,393/391 (100.5%)
same,viabilities of PBMC under high-dose versus low-dose treatments (result in words),[4]; high dose up to 400 µM compared with 0.1-10 µM,no substantial differences
